Here are results for ten cell lines from the supplement of paper PMC10307832.

Test in all cases: relative viability (nuclei count vs DMSO), 5 days (fraction); higher = more cells survive
Compound in the assay “Dinaciclib + Palbociclib”: CCc1cnn2c(NCc3ccc[n+]([O-])c3)cc(N3CCCC[C@H]3CCO)nc12 [Dinaciclib] + CC(=O)c1c(C)c2cnc(Nc3ccc(N4CCNCC4)cn3)nc2n(C2CCCC2)c1=O [Palbociclib] (partner 0.5 µM)
The gist of the method:
(§1)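 Dosing by pin tool came one day after lung cancer cell lines were seeded in 1536-well plates, using either one drug or a fixed anchor-drug dose plus five library-drug doses (not always all listed) in √10 steps. After 5 days, nuclei were counted on 4× images. Relative viability is treated-well nuclei count divided by vehicle-well nuclei count, and values are medians of duplicate plates.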

Compound in the assay “Dinaciclib + Luminespib”: CCc1cnn2c(NCc3ccc[n+]([O-])c3)cc(N3CCCC[C@H]3CCO)nc12 [Dinaciclib] + CCNC(=O)c1noc(-c2cc(C(C)C)c(O)cc2O)c1-c1ccc(CN2CCOCC2)cc1 [Luminespib] (partner 0.01 µM)
The gist of the method:
as §1

Compound in the assay “Dinaciclib + Linsitinib”: CCc1cnn2c(NCc3ccc[n+]([O-])c3)cc(N3CCCC[C@H]3CCO)nc12 [Dinaciclib] + C[C@]1(O)C[C@@H](c2nc(-c3ccc4ccc(-c5ccccc5)nc4c3)c3c(N)nccn32)C1 [Linsitinib] (partner 1 µM)
In short, it runs like this: as §1

Compound in the assay “Dinaciclib + AZD7762”: CCc1cnn2c(NCc3ccc[n+]([O-])c3)cc(N3CCCC[C@H]3CCO)nc12 [Dinaciclib] + NC(=O)Nc1cc(-c2cccc(F)c2)sc1C(=O)N[C@H]1CCCNC1 [AZD7762] (partner 0.2 µM)
In short, it runs like this: as §1

Compound in the assay “Dinaciclib + Olaparib”: CCc1cnn2c(NCc3ccc[n+]([O-])c3)cc(N3CCCC[C@H]3CCO)nc12 [Dinaciclib] + O=C(c1cc(Cc2n[nH]c(=O)c3ccccc23)ccc1F)N1CCN(C(=O)C2CC2)CC1 [Olaparib] (partner 8 µM)
In short, it runs like this: as §1

For the cell line HCC-827, the relative viability in the assay with Dinaciclib + Palbociclib (first compound 0.009487 µM) stood at 0.387; with Dinaciclib + Palbociclib (first compound 0.03 µM) it was 0.169; with Dinaciclib + Palbociclib (first compound 0.09487 µM), 0.14; in the assay with Dinaciclib + Palbociclib (first compound 0.3 µM), 0.121; with Dinaciclib + Luminespib (first compound 0.009487 µM), 0.805; with Dinaciclib + Luminespib (first compound 0.03 µM) it was 0.108. Moreover, the relative viability amounted to 0.103 with Dinaciclib + Luminespib (first compound 0.09487 µM); 0.107 in the assay with Dinaciclib + Luminespib (first compound 0.3 µM); 0.951 with Dinaciclib + Linsitinib (first compound 0.009487 µM); 0.747 with Dinaciclib + Linsitinib (first compound 0.03 µM); 0.181 with Dinaciclib + Linsitinib (first compound 0.09487 µM); 0.147 with Dinaciclib + Linsitinib (first compound 0.3 µM). Further, the relative viability with Dinaciclib + AZD7762 (first compound 0.009487 µM) was found to be 0.243; in the assay with Dinaciclib + AZD7762 (first compound 0.03 µM), 0.162; with Dinaciclib + AZD7762 (first compound 0.09487 µM) it was 0.105; with Dinaciclib + AZD7762 (first compound 0.3 µM), 0.143; with Dinaciclib + Olaparib (first compound 0.009487 µM) it was 0.631; with Dinaciclib + Olaparib (first compound 0.03 µM), 0.123. Besides, the relative viability came out at 0.116 with Dinaciclib + Olaparib (first compound 0.09487 µM) and 0.117 in the assay with Dinaciclib + Olaparib (first compound 0.3 µM).

HOP-62: the relative viability in the assay with Dinaciclib + Palbociclib (first compound 0.009487 µM) turned out to be 0.465; in the assay with Dinaciclib + Palbociclib (first compound 0.03 µM) it was 0.187; in the assay with Dinaciclib + Palbociclib (first compound 0.09487 µM) it was 0.071; with Dinaciclib + Palbociclib (first compound 0.3 µM) it was 0.0775; in the assay with Dinaciclib + Luminespib (first compound 0.009487 µM) it was 0.778; with Dinaciclib + Luminespib (first compound 0.03 µM), 0.193. The relative viability amounted to 0.0765 with Dinaciclib + Luminespib (first compound 0.09487 µM); 0.0749 with Dinaciclib + Luminespib (first compound 0.3 µM); 1.01 with Dinaciclib + Linsitinib (first compound 0.009487 µM); 0.203 with Dinaciclib + Linsitinib (first compound 0.03 µM); 0.0716 with Dinaciclib + Linsitinib (first compound 0.09487 µM); 0.0565 with Dinaciclib + Linsitinib (first compound 0.3 µM). For the same cell line, the relative viability worked out at 0.706 in the assay with Dinaciclib + AZD7762 (first compound 0.009487 µM); 0.225 in the assay with Dinaciclib + AZD7762 (first compound 0.03 µM); 0.0545 in the assay with Dinaciclib + AZD7762 (first compound 0.09487 µM); 0.068 with Dinaciclib + AZD7762 (first compound 0.3 µM); 0.295 in the assay with Dinaciclib + Olaparib (first compound 0.009487 µM); 0.0722 in the assay with Dinaciclib + Olaparib (first compound 0.03 µM). Also, the relative viability was determined as 0.0964 in the assay with Dinaciclib + Olaparib (first compound 0.09487 µM) and 0.0667 in the assay with Dinaciclib + Olaparib (first compound 0.3 µM).

Take IA-LM: the relative viability with Dinaciclib + Linsitinib (first compound 0.009487 µM) was 0.664; with Dinaciclib + Linsitinib (first compound 0.03 µM), 0.27; with Dinaciclib + Linsitinib (first compound 0.09487 µM), 0.028; with Dinaciclib + Linsitinib (first compound 0.3 µM) it was 0.0252; with Dinaciclib + Olaparib (first compound 0.009487 µM) it was 0.88; with Dinaciclib + Olaparib (first compound 0.03 µM) it was 0.0461. Also, the relative viability worked out at 0.0398 with Dinaciclib + Olaparib (first compound 0.09487 µM) and 0.0287 with Dinaciclib + Olaparib (first compound 0.3 µM).

As for LC-2-ad, the relative viability with Dinaciclib + Palbociclib (first compound 0.009487 µM) was determined as 0.411; in the assay with Dinaciclib + Palbociclib (first compound 0.03 µM), 0.204; with Dinaciclib + Palbociclib (first compound 0.09487 µM), 0.114; with Dinaciclib + Palbociclib (first compound 0.3 µM), 0.136; in the assay with Dinaciclib + Luminespib (first compound 0.009487 µM) it was 0.877; with Dinaciclib + Luminespib (first compound 0.03 µM), 0.23. For the same cell line, the relative viability was determined as 0.23 in the assay with Dinaciclib + Luminespib (first compound 0.09487 µM); 0.178 with Dinaciclib + Luminespib (first compound 0.3 µM); 0.745 with Dinaciclib + Linsitinib (first compound 0.009487 µM); 0.0866 in the assay with Dinaciclib + Linsitinib (first compound 0.03 µM); 0.0684 with Dinaciclib + Linsitinib (first compound 0.09487 µM); 0.0797 with Dinaciclib + Linsitinib (first compound 0.3 µM). Moreover, the relative viability with Dinaciclib + AZD7762 (first compound 0.009487 µM) was 0.87; with Dinaciclib + AZD7762 (first compound 0.03 µM) it was 0.118; with Dinaciclib + AZD7762 (first compound 0.09487 µM), 0.11; with Dinaciclib + AZD7762 (first compound 0.3 µM) it was 0.128; with Dinaciclib + Olaparib (first compound 0.009487 µM) it was 0.495; with Dinaciclib + Olaparib (first compound 0.03 µM) it was 0.162. Moreover, the results for the relative viability with Dinaciclib + Olaparib (first compound 0.09487 µM) and in the assay with Dinaciclib + Olaparib (first compound 0.3 µM) were 0.13 and 0.133, respectively.

As for NCI-H520, the relative viability turned out to be 0.232 with Dinaciclib + Palbociclib (first compound 0.009487 µM); 0.142 in the assay with Dinaciclib + Palbociclib (first compound 0.03 µM); 0.134 with Dinaciclib + Palbociclib (first compound 0.09487 µM); 0.126 in the assay with Dinaciclib + Palbociclib (first compound 0.3 µM); 0.239 with Dinaciclib + Luminespib (first compound 0.009487 µM); 0.231 in the assay with Dinaciclib + Luminespib (first compound 0.03 µM). Further, the relative viability with Dinaciclib + Luminespib (first compound 0.09487 µM) is 0.222; in the assay with Dinaciclib + Luminespib (first compound 0.3 µM), 0.217; with Dinaciclib + Linsitinib (first compound 0.009487 µM), 0.615; with Dinaciclib + Linsitinib (first compound 0.03 µM), 0.128; with Dinaciclib + Linsitinib (first compound 0.09487 µM) it was 0.129; with Dinaciclib + Linsitinib (first compound 0.3 µM), 0.177. Besides, the relative viability in the assay with Dinaciclib + Olaparib (first compound 0.009487 µM) turned out to be 0.259; with Dinaciclib + Olaparib (first compound 0.03 µM) it was 0.117; with Dinaciclib + Olaparib (first compound 0.09487 µM), 0.101; with Dinaciclib + Olaparib (first compound 0.3 µM) it was 0.114.

Take NCI-H596: the relative viability with Dinaciclib + Luminespib (first compound 0.009487 µM) turned out to be 0.564; with Dinaciclib + Luminespib (first compound 0.03 µM), 0.566; with Dinaciclib + Luminespib (first compound 0.09487 µM) it was 0.174; with Dinaciclib + Luminespib (first compound 0.3 µM), 0.186; with Dinaciclib + Linsitinib (first compound 0.009487 µM), 0.847; with Dinaciclib + Linsitinib (first compound 0.03 µM), 0.468. Moreover, the relative viability came out at 0.169 in the assay with Dinaciclib + Linsitinib (first compound 0.09487 µM); 0.193 in the assay with Dinaciclib + Linsitinib (first compound 0.3 µM); 1.09 with Dinaciclib + AZD7762 (first compound 0.009487 µM); 0.479 with Dinaciclib + AZD7762 (first compound 0.03 µM); 0.262 with Dinaciclib + AZD7762 (first compound 0.09487 µM); 0.24 with Dinaciclib + AZD7762 (first compound 0.3 µM). The relative viability with Dinaciclib + Olaparib (first compound 0.009487 µM) amounted to 0.699; with Dinaciclib + Olaparib (first compound 0.03 µM), 0.522; with Dinaciclib + Olaparib (first compound 0.09487 µM) it was 0.222; in the assay with Dinaciclib + Olaparib (first compound 0.3 µM), 0.202.

Take NCI-H661: the relative viability came to 0.431 with Dinaciclib + Palbociclib (first compound 0.009487 µM); 0.188 with Dinaciclib + Palbociclib (first compound 0.03 µM); 0.14 with Dinaciclib + Palbociclib (first compound 0.09487 µM); 0.153 with Dinaciclib + Palbociclib (first compound 0.3 µM); 0.906 in the assay with Dinaciclib + Luminespib (first compound 0.009487 µM); 0.195 with Dinaciclib + Luminespib (first compound 0.03 µM). In addition, the relative viability stood at 0.169 in the assay with Dinaciclib + Luminespib (first compound 0.09487 µM); 0.148 with Dinaciclib + Luminespib (first compound 0.3 µM); 0.452 with Dinaciclib + Linsitinib (first compound 0.009487 µM); 0.184 with Dinaciclib + Linsitinib (first compound 0.03 µM); 0.144 with Dinaciclib + Linsitinib (first compound 0.09487 µM); 0.2 with Dinaciclib + Linsitinib (first compound 0.3 µM). The relative viability in the assay with Dinaciclib + Olaparib (first compound 0.009487 µM) turned out to be 0.664; with Dinaciclib + Olaparib (first compound 0.03 µM), 0.227; with Dinaciclib + Olaparib (first compound 0.09487 µM) it was 0.148; in the assay with Dinaciclib + Olaparib (first compound 0.3 µM) it was 0.147.

Take NCI-H1563: the relative viability amounted to 0.526 in the assay with Dinaciclib + Luminespib (first compound 0.009487 µM); 0.272 with Dinaciclib + Luminespib (first compound 0.03 µM); 0.177 in the assay with Dinaciclib + Luminespib (first compound 0.09487 µM); 0.128 with Dinaciclib + Luminespib (first compound 0.3 µM); 1.39 in the assay with Dinaciclib + Linsitinib (first compound 0.009487 µM); 0.794 with Dinaciclib + Linsitinib (first compound 0.03 µM). Further, the relative viability was 0.331 in the assay with Dinaciclib + Linsitinib (first compound 0.09487 µM) and 0.376 in the assay with Dinaciclib + Linsitinib (first compound 0.3 µM).

With NCI-H1650, the relative viability turned out to be 0.343 with Dinaciclib + Palbociclib (first compound 0.009487 µM); 0.0912 with Dinaciclib + Palbociclib (first compound 0.03 µM); 0.115 with Dinaciclib + Palbociclib (first compound 0.09487 µM); 0.0963 with Dinaciclib + Palbociclib (first compound 0.3 µM); 0.226 in the assay with Dinaciclib + Luminespib (first compound 0.009487 µM); 0.204 with Dinaciclib + Luminespib (first compound 0.03 µM). The relative viability with Dinaciclib + Luminespib (first compound 0.09487 µM) is 0.158; with Dinaciclib + Luminespib (first compound 0.3 µM), 0.172; with Dinaciclib + Olaparib (first compound 0.009487 µM) it was 0.861; in the assay with Dinaciclib + Olaparib (first compound 0.03 µM) it was 0.431; in the assay with Dinaciclib + Olaparib (first compound 0.09487 µM) it was 0.127; with Dinaciclib + Olaparib (first compound 0.3 µM), 0.0993.

As to NCI-H1703, the relative viability in the assay with Dinaciclib + Linsitinib (first compound 0.009487 µM) stood at 0.767; with Dinaciclib + Linsitinib (first compound 0.03 µM), 0.25; with Dinaciclib + Linsitinib (first compound 0.09487 µM), 0.0664; with Dinaciclib + Linsitinib (first compound 0.3 µM), 0.0983; with Dinaciclib + AZD7762 (first compound 0.009487 µM), 0.132; with Dinaciclib + AZD7762 (first compound 0.03 µM), 0.125. Further, the relative viability with Dinaciclib + AZD7762 (first compound 0.09487 µM) came to 0.0862; in the assay with Dinaciclib + AZD7762 (first compound 0.3 µM), 0.087; with Dinaciclib + Olaparib (first compound 0.009487 µM) it was 0.475; with Dinaciclib + Olaparib (first compound 0.03 µM), 0.0997; in the assay with Dinaciclib + Olaparib (first compound 0.09487 µM), 0.0838; with Dinaciclib + Olaparib (first compound 0.3 µM), 0.113.
